Measured values published in US6410558B1, “Fungicides for the control of take-all disease of plants” (Monsanto Technology LLC, priority 1991, dated 2002).

System: Gaeumannomyces graminis var. tritici (Ggt)
Test: In vitro Assay: mycelial growth of Ggt on minimal media agar plates containing test compound
Type: cell-based
Details: dark, 19-20° C., 4 to 5 days, diameter of mycelial growth; for inhibition at 0.1 ppm / inhibition at 1 ppm / inhibition at 10 ppm: Gaeumannomyces graminis; for inhibition at 0.1 ppm / In vitro (ppm) 0.1, Percent Inhibition: 0.1 ppm in minimal media agar; for inhibition at 0.1 ppm: read-out: In vitro (ppm) 0.1, Percent Inhibition; for inhibition at 1 ppm / In vitro (ppm) 1, Percent Inhibition: 1 ppm in minimal media agar; for inhibition at 1 ppm: read-out: In vitro (ppm) 1, Percent Inhibition; for inhibition at 10 ppm / In vitro (ppm) 10, Percent Inhibition: 10 ppm in minimal media agar; for inhibition at 10 ppm: read-out: In vitro (ppm) 10, Percent Inhibition
How it was run: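 Ggt mycelial diameter read after 4 to 5 days in darkness at 19-20° C, from three 4-mm plugs placed on Czapek Dox minimal agar containing test compound delivered in acetone. Inhibition expressed as percent versus untreated plates, plug size (4 mm) subtracted from both.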

Question: What does the source list for `CCN(CC)C(=O)c1c(I)ccc(F)c1[Si](C)(C)C` [Example 40, N,N-Diethyl-3-fluoro-6-iodo-2-(trimethylsilyl)benzamide]?
Answer: inhibition at 0.1 ppm: < 0%; inhibition at 1 ppm: < 0%; inhibition at 10 ppm: 53%

Question: Which inhibition at 0.1 ppm does the source give for `C#CC(C)(C)NC(=O)c1c(Cl)cccc1[Si](C)(C)C` [Example 107, 2-Chloro-N-(1,1-dimethyl-2-propynyl)-6-(trimethylsilyl)benzamide] here?
Answer: < 0%

Question: And the inhibition at 1 ppm?
Answer: < 0%

Question: What about the inhibition at 10 ppm of the same molecule?
Answer: 24%

Question: With `C[Si](C)(C)c1cc(Cl)sc1C(=O)NCCO` [Example 263, 5-Chloro-N-(2-hydroxyethyl)-3-trimethylsilyl-2-thiophenecarboxamide] as the molecule, how does the inhibition at 0.1 ppm read?
Answer: 7%

Question: And the inhibition at 1 ppm?
Answer: < 0%

Question: What about the inhibition at 10 ppm of the same molecule?
Answer: 50%

Question: Which inhibition at 0.1 ppm does the source give for `CC(C)SC(=O)c1c(Cl)cccc1[Si](C)(C)C` [Example 78, 2-Chloro-6-(trimethylsilyl)-benzenecarbothioic acid, S-(1-methylethyl) ester] here?
Answer: 12%

Question: What about the inhibition at 1 ppm of the same molecule?
Answer: 12%

Question: And the inhibition at 10 ppm?
Answer: 62%

Question: What does the source list for `CCNC(=O)c1c(Cl)ccc[c]1[Sn]([CH3])([CH3])[CH3]` [Example 115, 2-Chloro-N-ethyl-6-(trimethylstannyl)benzamide]?
Answer: In vitro (ppm) 0.1, Percent Inhibition: 97%; In vitro (ppm) 1, Percent Inhibition: 97%; In vitro (ppm) 10, Percent Inhibition: 97%

Question: With `CCN(CC)C(=O)c1c(Cl)cc(C)cc1[Si](C)(C)C` [Example 59, N,N-Diethyl-2-chloro-4-methyl-6-(trimethylsilyl)benzamide] as the molecule, how does the inhibition at 0.1 ppm read?
Answer: 6%

Question: And the inhibition at 1 ppm?
Answer: < 0%

Question: What about the inhibition at 10 ppm of the same molecule?
Answer: 26%

Question: For `C[Si](C)(C)c1cccc(Cl)c1C(=O)NCc1ccc2c(c1)OCO2` [Example 144, N-(1,3-benzodioxol-5-ylmethyl)-2-chloro-6-(trimethylsilyl)benzamide], which inhibition at 0.1 ppm is on record?
Answer: < 0%

Question: What about the inhibition at 1 ppm of the same molecule?
Answer: 11%

Question: And the inhibition at 10 ppm?
Answer: 59%

Question: Which results are given for `CCNC(=O)c1c([Si](C)(C)C)ccc(/C=C/[N+](=O)[O-])c1Cl` [Example 241, 2-Chloro-N-ethyl-3-(2-(E)-nitro-ethenyl)-6-(trimethylsilyl)benzamide]?
Answer: inhibition at 0.1 ppm: 13%; inhibition at 1 ppm: 87%; inhibition at 10 ppm: 100%

Question: Which inhibition at 0.1 ppm does the source give for `CCNC(=O)c1c(Cl)cccc1C(C)(C)C` [Example 285, 2-Chloro-N-ethyl-6-(1,1-dimethylethyl)benzamide] here?
Answer: < 0%

Question: And the inhibition at 1 ppm?
Answer: 50%

Question: What about the inhibition at 10 ppm of the same molecule?
Answer: 75%

Question: `CCN(CC)C(=O)c1ccc(C)cc1[Si](C)(C)C` [Example 58, N,N-Diethyl-4-methyl-2-(trimethylsilyl)benzamide] was tested. Which inhibition at 0.1 ppm did it give?
Answer: 13%

Question: What about the inhibition at 1 ppm of the same molecule?
Answer: 6%

Question: And the inhibition at 10 ppm?
Answer: 55%

Question: `CCCCCCCC[Si](C)(C)c1cccc(Cl)c1C(=O)NCC` [Example 182, 2-Chloro-6-(dimethyloctylsilyl)-N-ethylbenzamide] was tested. Which inhibition at 0.1 ppm did it give?
Answer: 30%

Question: What about the inhibition at 1 ppm of the same molecule?
Answer: 58%

Question: And the inhibition at 10 ppm?
Answer: 73%

Question: How did the inhibition at 0.1 ppm turn out when `CCN(CSC)C(=O)c1c(Cl)cccc1[Si](C)(C)C` [Example 279, 2-Chloro-N-ethyl-N-[(methylthio)methyl]-6-(trimethylsilyl)benzamide] was run?
Answer: < 0%

Question: And the inhibition at 1 ppm?
Answer: < 0%

Question: What about the inhibition at 10 ppm of the same molecule?
Answer: 47%

Question: How did the inhibition at 0.1 ppm turn out when `CCNC(=O)c1cc(C(F)(F)F)ccc1[Si](C)(C)C` [Example 225, N-Ethyl-5-(trifluoromethyl)-2-(trimethylsilyl)benzamide] was run?
Answer: 18%

Question: And the inhibition at 1 ppm?
Answer: 64%

Question: What about the inhibition at 10 ppm of the same molecule?
Answer: 95%

Question: Which inhibition at 0.1 ppm does the source give for `CC(C)N(C(=O)c1c(Cl)cccc1[Si](C)(C)C)C(C)C` [Example 126, 2-Chloro-N,N-bis(1-methylethyl)-6-(trimethylsilyl)benzamide] here?
Answer: 15%

Question: What about the inhibition at 1 ppm of the same molecule?
Answer: 4%

Question: And the inhibition at 10 ppm?
Answer: 93%

Question: For “2-Chloro-N-ethyl-6-(9-phenylethenyl)benzamide [Example 116]”, which “In vitro (ppm) 0.1, Percent Inhibition” value is on record?
Answer: N (If the calculation resulted in “0” or less, as compared to the untreated control, a “N” is shown to indicate no control.)

Question: And the “In vitro (ppm) 1, Percent Inhibition” value?
Answer: N (If the calculation resulted in “0” or less, as compared to the untreated control, a “N” is shown to indicate no control.)

Question: And the “In vitro (ppm) 10, Percent Inhibition” value?
Answer: 33%

Question: Which results are given for `CCN(CC)C(=O)c1cccc(F)c1[Si](C)(C)C(C)(C)C` [Example 9, 2-[(1,1-Dimethylethyl)dimethylsilyl]-N,N-diethyl-3-fluorobenzamide]?
Answer: inhibition at 0.1 ppm: 3%; inhibition at 1 ppm: < 0%; inhibition at 10 ppm: 71%

Question: `CCNC(=O)c1nc(Cl)sc1[Si](C)(C)C` [Example 282, 2-Chloro-N-ethyl-5-(trimethylsilyl)-4-thiazolecarboxamide] was tested. Which inhibition at 0.1 ppm did it give?
Answer: 3%

Question: And the inhibition at 1 ppm?
Answer: 15%

Question: And the inhibition at 10 ppm?
Answer: 78%

Question: How did the inhibition at 0.1 ppm turn out when `CCN(COC)C(=O)c1ccccc1[Si](C)(C)C` [Example 50, N-Ethyl-N-(methoxymethyl)-2-(trimethylsilyl)benzamide] was run?
Answer: 3%

Question: And the inhibition at 1 ppm?
Answer: 10%

Question: And the inhibition at 10 ppm?
Answer: 20%

Question: For `Cc1ccc(F)c([Si](C)(C)C)c1C(=O)N(C)C(C)(C)C` [Example 11, N-(1,1-Dimethylethyl)-3-fluoro-N,6-dimethyl-2-(trimethylsilyl)benzamide], which inhibition at 0.1 ppm is on record?
Answer: < 0%

Question: What about the inhibition at 1 ppm of the same molecule?
Answer: < 0%

Question: What about the inhibition at 10 ppm of the same molecule?
Answer: 24%

Question: What does the source list for `CCN(C)C(=O)c1c(Cl)cccc1N(C)C(C)(C)C` [Example 189, 2-Chloro-6-[(1,1-dimethylethyl)methylamino]-N-ethyl-N-methylbenzamide]?
Answer: inhibition at 0.1 ppm: 4%; inhibition at 1 ppm: 13%; inhibition at 10 ppm: 65%

Question: How did the inhibition at 0.1 ppm turn out when `C[Si](C)(C)c1cccc(Cl)c1C(=O)NCc1cccc([N+](=O)[O-])c1` [Example 141, 2-Chloro-N-[(3-nitrophenyl)-methyl]-6-(trimethylsilyl)-benzamide] was run?
Answer: 19%

Question: And the inhibition at 1 ppm?
Answer: 64%

Question: What about the inhibition at 10 ppm of the same molecule?
Answer: 100%

Question: `CCNC(=O)c1c(Br)csc1[Si](C)(C)C` [Example 267, 4-Bromo-N-ethyl-2-(trimethylsilyl)-3-thiophenecarboxamide] was tested. Which inhibition at 0.1 ppm did it give?
Answer: 18%

Question: What about the inhibition at 1 ppm of the same molecule?
Answer: 64%

Question: And the inhibition at 10 ppm?
Answer: 61%

Question: `CCNC(=O)c1c(Cl)cccc1-c1cccc2ccccc12` [Example 73, 2-Chloro-N-ethyl-6-(1-naphthalenyl)benzamide] was tested. Which inhibition at 0.1 ppm did it give?
Answer: 13%

Question: What about the inhibition at 1 ppm of the same molecule?
Answer: 60%

Question: And the inhibition at 10 ppm?
Answer: 83%

Question: `CCN(CC)C(=O)c1c(C)cc(C)cc1[Si](C)(C)C` [Example 60, N,N-Diethyl-2,4-dimethyl-6-(trimethylsilyl)benzamide] was tested. Which inhibition at 0.1 ppm did it give?
Answer: < 0%

Question: What about the inhibition at 1 ppm of the same molecule?
Answer: < 0%

Question: What about the inhibition at 10 ppm of the same molecule?
Answer: 19%

Question: Which results are given for `CCN(CC)C(=S)c1ccc(C)c(F)c1[Si](C)(C)C` [Example 75, N,N-Diethyl-3-fluoro-4-methyl-2-(trimethylsilyl)thiobenzamide]?
Answer: inhibition at 0.1 ppm: 5%; inhibition at 1 ppm: 26%; inhibition at 10 ppm: 31%

Question: With `CCNC(=O)c1ccsc1[Si](C)(C)C` [Example 70, N-Ethyl-2-(trimethylsilyl)-3-thiophenecarboxamide] as the molecule, how does the inhibition at 0.1 ppm read?
Answer: < 0%

Question: And the inhibition at 1 ppm?
Answer: 15%

Question: And the inhibition at 10 ppm?
Answer: 44%

Question: For `CCNC(=O)c1c(F)cccc1C1(C)CCCC1` [Example 123, N-Ethyl-2-fluoro-6-(1-methylcyclopentyl)benzamide], which inhibition at 0.1 ppm is on record?
Answer: 11%

Question: What about the inhibition at 1 ppm of the same molecule?
Answer: 78%

Question: And the inhibition at 10 ppm?
Answer: 89%

Question: What does the source list for `C[Si](C)(C)c1cccc(Cl)c1C(=O)NC1CCCCC1` [Example 129, 2-Chloro-N-cyclohexyl-6-(trimethylsilyl)benzamide]?
Answer: inhibition at 0.1 ppm: 9%; inhibition at 1 ppm: 35%; inhibition at 10 ppm: 26%

Question: With `CCOC(=O)Nc1c(Cl)cccc1[Si](C)(C)C` [Example 109, [2-Chloro-6-(trimethylsilyl)phenyl]carbamic acid, ethyl ester] as the molecule, how does the inhibition at 0.1 ppm read?
Answer: 10%

Question: What about the inhibition at 1 ppm of the same molecule?
Answer: 10%

Question: And the inhibition at 10 ppm?
Answer: 83%

Question: Which inhibition at 0.1 ppm does the source give for `CCNC(=O)c1cc(N(C)C)ccc1[Si](C)(C)C` [Example 226, 5-(Dimethylamino)-N-ethyl-2-(trimethylsilyl)benzamide] here?
Answer: 32%

Question: What about the inhibition at 1 ppm of the same molecule?
Answer: 91%

Question: What about the inhibition at 10 ppm of the same molecule?
Answer: 100%

Question: Which results are given for `CCNC(=O)c1c(Cl)cc(C=O)cc1[Si](C)(C)C` [Example 193, 2-Chloro-N-ethyl-4-formyl-6-(trimethylsilyl)benzamide]?
Answer: inhibition at 0.1 ppm: 35%; inhibition at 1 ppm: 30%; inhibition at 10 ppm: 57%

Question: With `CCC(C)SC(=O)c1c(Cl)cccc1[Si](C)(C)C` (stereo not drawn) [Example 80, 2-Chloro-6-(trimethylsilyl)-benzenecarbothioic acid, S-(1-methylpropyl) ester] as the molecule, how does the inhibition at 0.1 ppm read?
Answer: < 0%

Question: What about the inhibition at 1 ppm of the same molecule?
Answer: 4%

Question: What about the inhibition at 10 ppm of the same molecule?
Answer: 46%

Question: With `CCN(CC)C(=O)c1c([Si](C)(C)C)ccc(Cl)c1Cl` [Example 84, N,N-Diethyl-2,3-dichloro-6-(trimethylsilyl)benzamide] as the molecule, how does the inhibition at 0.1 ppm read?
Answer: < 0%

Question: And the inhibition at 1 ppm?
Answer: 66%

Question: What about the inhibition at 10 ppm of the same molecule?
Answer: 100%

Question: What does the source list for `CCNC(=O)c1c(Cl)ccc(N)c1[Si](C)(C)C` [Example 233, 3-Amino-6-chloro-N-ethyl-2-(trimethylsilyl)benzamide]?
Answer: inhibition at 0.1 ppm: 28%; inhibition at 1 ppm: 24%; inhibition at 10 ppm: 76%

Question: With `CCN(CC)C(=O)c1c(C)ccc(F)c1[Si](C)(C)C(C)(C)C` [Example 10, 2-[(1,1-Dimethylethyl)dimethylsilyl]-N,N-diethyl-3-fluoro-6-methylbenzamide] as the molecule, how does the inhibition at 0.1 ppm read?
Answer: < 0%

Question: And the inhibition at 1 ppm?
Answer: < 0%

Question: What about the inhibition at 10 ppm of the same molecule?
Answer: 50%

Question: How did the inhibition at 0.1 ppm turn out when `Cc1ccccc1NC(=O)c1ccccc1[Si](C)(C)C` [Example 121, N-(2-Methylphenyl)-2-(trimethylsilyl)benzamide] was run?
Answer: 4%

Question: What about the inhibition at 1 ppm of the same molecule?
Answer: 8%

Question: What about the inhibition at 10 ppm of the same molecule?
Answer: 31%
